# The source made the active and inactive calls. The calls are words filed in the database; no cut-off is given here.
# Assays:
# [1] = Binding affinity to complementary DNA
# [2] = Binding affinity to complementary RNA
Compound,Activity [1],Activity [2]
Cc1cn([C@H]2C[C@H](OP(=O)(O)OC[C@H]3O[C@@H](n4ccc(N)nc4=O)[C@H](O)[C@@H]3OP(=O)(O)OC[C@H]3O[C@@H](n4cnc5c(=O)[nH]c(N)nc54)[C@H](O)[C@@H]3OP(=O)(O)OC[C@H]3O[C@@H](n4cnc5c(N)ncnc54)[C@H](O)[C@@H]3OP(=O)(O)OC[C@H]3O[C@@H](n4cnc5c(=O)[nH]c(N)nc54)[C@H](O)[C@@H]3OP(=O)(O)OC[C@H]3O[C@@H](n4ccc(N)nc4=O)[C@H](O)[C@@H]3OP(=O)(O)OC[C@H]3O[C@@H](n4cnc5c(=O)[nH]c(N)nc54)[C@H](O)[C@@H]3OP(=O)(O)OC[C@H]3O[C@@H](n4cc(C)c(=O)[nH]c4=O)C[C@@H]3OP(=O)(O)OC[C@H]3O[C@@H](n4cc(C)c(=O)[nH]c4=O)C[C@@H]3OP(=O)(O)OC[C@H]3O[C@@H](n4ccc(N)nc4=O)[C@H](O)[C@@H]3OP(=O)(O)OC[C@H]3O[C@@H](n4cc(C)c(=O)[nH]c4=O)C[C@@H]3OP(=O)(O)OC[C@H]3O[C@@H](n4ccc(N)nc4=O)[C@H](O)[C@@H]3O)[C@@H](CO)O2)c(=O)[nH]c1=O,Active,Active
Cc1cn([C@H]2C[C@H](OP(=O)(O)OC[C@H]3O[C@@H](n4ccc(N)nc4=O)[C@H](O)[C@@H]3OP(=O)(O)OC[C@H]3O[C@@H](n4cnc5c(=O)[nH]c(N)nc54)[C@H](O)[C@@H]3OP(=O)(O)OC[C@H]3O[C@@H](n4cnc5c(N)ncnc54)[C@H](O)[C@@H]3OP(=O)(O)OC[C@H]3O[C@@H](n4cnc5c(=O)[nH]c(N)nc54)[C@H](O)[C@@H]3OP(=O)(O)OC[C@H]3O[C@@H](n4ccc(N)nc4=O)[C@H](O)[C@@H]3OP(=O)(O)OC[C@H]3O[C@@H](n4cnc5c(=O)[nH]c(N)nc54)[C@H](O)[C@@H]3OP(=O)(O)OC[C@H]3O[C@@H](n4cc(C)c(=O)[nH]c4=O)C[C@@H]3OP(=O)(O)OC[C@H]3O[C@@H](n4cc(C)c(=O)[nH]c4=O)C[C@@H]3OP(=O)(O)OC[C@H]3O[C@@H](n4ccc(N)nc4=O)[C@H](O)[C@@H]3OP(=O)(O)OC[C@H]3O[C@@H](n4cc(C)c(=O)[nH]c4=O)C[C@@H]3OP(=O)(O)OC[C@H]3O[C@@H](n4ccc(N)nc4=O)[C@H](O)[C@@H]3OCCCS/C=C\SCCCOP(OC[C@H]3O[C@@H](n4cnc5c(N)ncnc54)[C@H](O)[C@@H]3OP(=O)(O)OC[C@H]3O[C@@H](n4ccc(N)nc4=O)[C@H](O)[C@@H]3OP(=O)(O)OC[C@H]3O[C@@H](n4cnc5c(=O)[nH]c(N)nc54)[C@H](O)[C@@H]3OP(=O)(O)OC[C@H]3O[C@@H](n4ccc(N)nc4=O)[C@H](O)[C@@H]3OP(=O)(O)OC[C@H]3O[C@@H](n4cc(C)c(=O)[nH]c4=O)C[C@@H]3OP(=O)(O)OC[C@H]3O[C@@H](n4ccc(N)nc4=O)[C@H](O)[C@@H]3OP(=O)(O)OC[C@H]3O[C@@H](n4cnc5c(=O)[nH]c(N)nc54)[C@H](O)[C@@H]3OP(=O)(O)OC[C@H]3O[C@@H](n4cnc5c(N)ncnc54)[C@H](O)[C@@H]3O)N(C(C)C)C(C)C)[C@@H](CO)O2)c(=O)[nH]c1=O (stereo partly specified),inactive,inactive
Cc1cn([C@H]2C[C@H](OP(=O)(O)OC[C@H]3O[C@@H](n4ccc(N)nc4=O)[C@H](O)[C@@H]3OP(=O)(O)OC[C@H]3O[C@@H](n4cnc5c(=O)[nH]c(N)nc54)[C@H](O)[C@@H]3OP(=O)(O)OC[C@H]3O[C@@H](n4cnc5c(N)ncnc54)[C@H](O)[C@@H]3O)[C@@H](COP(=O)(O)O[C@H]3[C@@H](O)[C@H](n4ccc(N)nc4=O)O[C@@H]3COP(=O)(O)O[C@H]3[C@@H](O)[C@H](n4cnc5c(=O)[nH]c(N)nc54)O[C@@H]3COP(=O)(O)O[C@H]3[C@@H](O)[C@H](n4ccc(N)nc4=O)O[C@@H]3COP(=O)(O)O[C@H]3[C@@H](O)[C@H](n4cnc5c(N)ncnc54)O[C@@H]3CO)O2)c(=O)[nH]c1=O,Active,Active

# — ChEMBL document CHEMBL1155869, “Red light-activated phosphorothioate oligodeoxyribonucleotides” (Bioorg Med Chem Lett, 2008)
